Test results as given in the supplement of paper PMC11061612.

Tests used:
U-698-M [1] = assay: Bliss excess, mean over the matrix (fraction); higher = more synergy; details: first compound max 10 µM, U-[…], B-Cell Non-Hodgkin's Lymphoma
Procedure, shortened: (§1)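 After 24 hours at 37°C and 5% CO2 in 1536-well plates, cells in DMEM/F12 or RPMI plus 10% FBS received two-drug dose matrices for 72 hours. Viability came from CellTiter-Glo 2.0 luminescence and was scaled as inhibition, anchored at 0 by vehicle wells and at 1 by blank wells. Combination Emax is taken as the second-highest inhibition in the matrix, and Bliss excess as the observed combination effect less EA + EB − EA·EB, with EA and EB the single-agent effects.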

U-698-M [2] = assay: combination Emax (second highest fraction inhibited in the dose matrix, 72 h); higher = more inhibition; details: first compound max 10 µM, B-Cell Non-Hodgkin's Lymphoma
Procedure, shortened: as §1
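Wherever Bliss excess, mean over the matrix is given: after 72 h of two-drug dosing.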

SMILES	Bliss excess (U-698-M [1]; partner max 10 µM, 7x7)	combination Emax (U-698-M [2]; partner max 10 µM, 7x7)	also measured
C[C@@H]1COCCN1c1cc(C2([S@](C)(=N)=O)CC2)nc(-c2ccnc3[nH]ccc23)n1 [AZD6738] + Nc1ccn([C@@H]2O[C@H](CO)[C@@H](O)C2(F)F)c(=O)n1 [Gemcitabine]	–	–	Bliss excess (U-698-M [1]; partner max 0.3 µM, 7x7): 0.0526; combination Emax (U-698-M [2]; partner max 0.3 µM, 7x7): 0.871
C[C@@H]1COCCN1c1cc(C2([S@](C)(=N)=O)CC2)nc(-c2ccnc3[nH]ccc23)n1 [AZD6738] + O=C(c1cc(Cc2n[nH]c(=O)c3ccccc23)ccc1F)N1CCN(C(=O)C2CC2)CC1 [Olaparib]	-0.0503	0.934	–
Cc1cc2ncnn2cc1Nc1ncc2c(n1)n(C1CCOCC1)c(=O)n2C [AZD7648] + C=CCn1c(=O)c2cnc(Nc3ccc(N4CCN(C)CC4)cc3)nc2n1-c1cccc(C(C)(C)O)n1 [AZD1775]	–	–	Bliss excess (U-698-M [1]; partner max 1 µM): -0.0156; combination Emax (U-698-M [2]; partner max 1 µM): 0.971
Cc1cc2ncnn2cc1Nc1ncc2c(n1)n(C1CCOCC1)c(=O)n2C [AZD7648] + CCN(CCO)CCCOc1ccc2c(Nc3cc(CC(=O)Nc4cccc(F)c4)[nH]n3)ncnc2c1 [AZD2811]	–	–	Bliss excess (U-698-M [1]; partner max 1 µM, 7x7): 0.0631; combination Emax (U-698-M [2]; partner max 1 µM, 7x7): 0.444
Cc1cc2ncnn2cc1Nc1ncc2c(n1)n(C1CCOCC1)c(=O)n2C [AZD7648] + CN(C)CCCOc1ccc(-c2ccc3ncc4c(c3c2)n(C2CCOCC2)c(=O)n4C)cn1 [AZD0156]	–	–	Bliss excess (U-698-M [1]; partner max 1 µM, 7x7): 0.0015; combination Emax (U-698-M [2]; partner max 1 µM, 7x7): 0.488
Cc1cc2ncnn2cc1Nc1ncc2c(n1)n(C1CCOCC1)c(=O)n2C [AZD7648] + COc1cc([C@@H]2c3cc4c(cc3[C@@H](O[C@@H]3O[C@@H]5CO[C@@H](C)O[C@H]5[C@H](O)[C@H]3O)[C@H]3COC(=O)[C@H]23)OCO4)cc(OC)c1O [Etoposide]	0.0866	0.823	–
Cc1cc2ncnn2cc1Nc1ncc2c(n1)n(C1CCOCC1)c(=O)n2C [AZD7648] + C[C@@H]1COCCN1C2=NC(=NC(=C2)C3(CC3)[S@](=N)(=O)C)C4=C5C=CNC5=NC=C4 [AZD6738]	-0.0006	0.939	–
Cc1cc2ncnn2cc1Nc1ncc2c(n1)n(C1CCOCC1)c(=O)n2C [AZD7648] + O=C(c1cc(Cc2n[nH]c(=O)c3ccccc23)ccc1F)N1CCN(C(=O)C2CC2)CC1 [Olaparib]	-0.0409	0.343	–
C[C@@H](Nc1cc(F)cc(F)c1)c1cc(C(=O)N(C)C)cc2c(=O)cc(N3CCOCC3)oc12 [AZD8186] + C1CN(CCC1(C(=O)N[C@@H](CCO)C2=CC=C(C=C2)Cl)N)C3=NC=NC4=C3C=CN4 [AZD5363]	-0.0592	0.349	–
C[C@@H](Nc1cc(F)cc(F)c1)c1cc(C(=O)N(C)C)cc2c(=O)cc(N3CCOCC3)oc12 [AZD8186] + CC(=O)c1c(C)c2cnc(Nc3ccc(N4CCNCC4)cn3)nc2n(C2CCCC2)c1=O [Palbociclib]	-0.0019	0.499	–
NC1(C(=O)N[C@@H](CCO)c2ccc(Cl)cc2)CCN(c2ncnc3[nH]ccc23)CC1 [Capivasertib] + CC(=O)c1c(C)c2cnc(Nc3ccc(N4CCNCC4)cn3)nc2n(C2CCCC2)c1=O [Palbociclib]	0.0018	0.532	–
NC1(C(=O)N[C@@H](CCO)c2ccc(Cl)cc2)CCN(c2ncnc3[nH]ccc23)CC1 [Capivasertib] + CC(C)n1c(=O)n(C)c2cnc3cc(F)c(-c4ccc(OCCCN5CCCCC5)nc4)cc3c21 [AZD1390]	–	–	Bliss excess (U-698-M [1]; partner max 0.3 µM, 7x7): 0.0024; combination Emax (U-698-M [2]; partner max 0.3 µM, 7x7): 0.507
NC1(C(=O)N[C@@H](CCO)c2ccc(Cl)cc2)CCN(c2ncnc3[nH]ccc23)CC1 [Capivasertib] + CCN(CCO)CCCOc1ccc2c(Nc3cc(CC(=O)Nc4cccc(F)c4)[nH]n3)ncnc2c1 [AZD2811]	–	–	Bliss excess (U-698-M [1]; partner max 1 µM, 7x7): -0.0021; combination Emax (U-698-M [2]; partner max 1 µM, 7x7): 0.5
NC1(C(=O)N[C@@H](CCO)c2ccc(Cl)cc2)CCN(c2ncnc3[nH]ccc23)CC1 [Capivasertib] + COc1nnc2ccc(N3CCC(c4ccc(OCCN5CCN(C)C(=O)[C@H]5C)cc4)CC3)nn12 [AZD5153]	–	–	Bliss excess (U-698-M [1]; partner max 1 µM, 7x7): -0.0646; combination Emax (U-698-M [2]; partner max 1 µM, 7x7): 0.768
NC1(C(=O)N[C@@H](CCO)c2ccc(Cl)cc2)CCN(c2ncnc3[nH]ccc23)CC1 [Capivasertib] + C[C@@H]1COCCN1C2=NC(=NC(=C2)C3(CC3)[S@](=N)(=O)C)C4=C5C=CNC5=NC=C4 [AZD6738]	-0.0275	0.909	–
NC1(C(=O)N[C@@H](CCO)c2ccc(Cl)cc2)CCN(c2ncnc3[nH]ccc23)CC1 [Capivasertib] + Cn1cnc2c(F)c(Nc3ccc(Br)cc3Cl)c(C(=O)NOCCO)cc21 [Selumetinib]	-0.0253	0.45	–
